Reference: the NIST ThermoML archive (doi:10.1021/je600557n)
Numbers after ± are expanded uncertainties.

Key:
[1] = molar heat capacity at constant pressure; xn = mol fraction of the nth substance listed; conditions: 101 kPa, Liquid, Small sample (50 mg) DSC
[2] = xn = mol fraction of the nth substance listed; conditions: 101 kPa, Liquid
[3] = refractive index (Na D-line) (dimensionless); xn = mol fraction of the nth substance listed; conditions: 101 kPa, Liquid, Standard Abbe refractometry

CC1CCCO1 (centres undefined) [2-methyltetrahydrofuran] + C[S+](C)[O-]
Conditions | mass density, [2] [kg/m3] | molar heat capacity at constant pressure, [1] [J/K/mol] | refractive index, [3] | viscosity, [2] [mPa·s]
293.15 K, x2 = 0.0675 | 865.78 ± 0.64 | – | 1.4121 ± 0.0007 | 0.537 ± 0.012
293.15 K, x2 = 0.1033 | – | 155.2 ± 2.4 | – | –
293.15 K, x2 = 0.1168 | 875.28 ± 0.61 | – | 1.4152 ± 0.0007 | 0.561 ± 0.012
293.15 K, x2 = 0.1368 | – | 155.1 ± 2.4 | – | –
293.15 K, x2 = 0.2208 | 896.02 ± 0.55 | – | 1.4215 ± 0.0007 | 0.631 ± 0.013
293.15 K, x2 = 0.2714 | – | 155 ± 2.4 | – | –
293.15 K, x2 = 0.3228 | 917.54 ± 0.48 | – | 1.4282 ± 0.0007 | 0.719 ± 0.015
293.15 K, x2 = 0.3775 | – | 154.6 ± 2.4 | – | –
293.15 K, x2 = 0.4044 | 935.66 ± 0.44 | – | 1.4336 ± 0.0007 | 0.78 ± 0.016
293.15 K, x2 = 0.4694 | 950.78 ± 0.4 | – | 1.438 ± 0.0007 | 0.876 ± 0.018
293.15 K, x2 = 0.4881 | – | 154.2 ± 2.4 | – | –
293.15 K, x2 = 0.5058 | 959.5 ± 0.38 | – | 1.4407 ± 0.0007 | 0.926 ± 0.019
293.15 K, x2 = 0.5877 | – | 153.8 ± 2.4 | – | –
293.15 K, x2 = 0.5888 | 980.16 ± 0.32 | – | 1.4468 ± 0.0007 | 1.047 ± 0.021
293.15 K, x2 = 0.6274 | – | 153.6 ± 2.4 | – | –
293.15 K, x2 = 0.6692 | 1001.25 ± 0.26 | – | 1.4527 ± 0.0007 | 1.194 ± 0.024
293.15 K, x2 = 0.6833 | – | 153.2 ± 2.4 | – | –
293.15 K, x2 = 0.7448 | 1022.04 ± 0.29 | – | 1.4589 ± 0.0006 | 1.354 ± 0.026
293.15 K, x2 = 0.7593 | – | 152.9 ± 2.4 | – | –
293.15 K, x2 = 0.8192 | 1043.57 ± 0.33 | – | 1.4651 ± 0.0007 | 1.55 ± 0.03
293.15 K, x2 = 0.8559 | – | 152 ± 2.4 | – | –
293.15 K, x2 = 0.9343 | – | 151.2 ± 2.3 | – | –
293.15 K, x2 = 0.9523 | 1084.75 ± 0.41 | – | 1.477 ± 0.0007 | 2.004 ± 0.038
293.15 K, x2 = 0.9687 | – | 150.8 ± 2.3 | – | –
303.15 K, x2 = 0.0609 | 854.29 ± 0.66 | – | 1.4055 ± 0.0007 | 0.468 ± 0.011
303.15 K, x2 = 0.1033 | – | 158.4 ± 2.5 | – | –
303.15 K, x2 = 0.1281 | 867.26 ± 0.62 | – | 1.4096 ± 0.0007 | 0.501 ± 0.011
303.15 K, x2 = 0.1368 | – | 158.3 ± 2.5 | – | –
303.15 K, x2 = 0.2161 | 884.84 ± 0.57 | – | 1.4152 ± 0.0007 | 0.554 ± 0.012
303.15 K, x2 = 0.2714 | – | 157.7 ± 2.4 | – | –
303.15 K, x2 = 0.3184 | 906.38 ± 0.51 | – | 1.4216 ± 0.0009 | 0.628 ± 0.013
303.15 K, x2 = 0.3775 | – | 157.3 ± 2.4 | – | –
303.15 K, x2 = 0.4156 | 928.04 ± 0.45 | – | 1.4281 ± 0.0007 | 0.71 ± 0.015
303.15 K, x2 = 0.4881 | – | 156.7 ± 2.4 | – | –
303.15 K, x2 = 0.5105 | 950.44 ± 0.39 | – | 1.4349 ± 0.0007 | 0.807 ± 0.017
303.15 K, x2 = 0.5491 | 959.9 ± 0.37 | – | 1.4378 ± 0.0007 | 0.852 ± 0.017
303.15 K, x2 = 0.584 | 968.73 ± 0.34 | – | 1.4405 ± 0.0007 | 0.896 ± 0.018
303.15 K, x2 = 0.5877 | – | 156.1 ± 2.4 | – | –
303.15 K, x2 = 0.6274 | – | 155.8 ± 2.4 | – | –
303.15 K, x2 = 0.6652 | 989.97 ± 0.28 | – | 1.4469 ± 0.0006 | 1.013 ± 0.02
303.15 K, x2 = 0.6833 | – | 155.4 ± 2.4 | – | –
303.15 K, x2 = 0.7439 | 1011.62 ± 0.27 | – | 1.4535 ± 0.0006 | 1.149 ± 0.023
303.15 K, x2 = 0.7593 | – | 154.7 ± 2.4 | – | –
303.15 K, x2 = 0.8161 | 1032.51 ± 0.31 | – | 1.4595 ± 0.0006 | 1.286 ± 0.025
303.15 K, x2 = 0.8558 | – | 153.8 ± 2.4 | – | –
303.15 K, x2 = 0.9343 | – | 152.9 ± 2.4 | – | –
303.15 K, x2 = 0.9427 | 1071.55 ± 0.38 | – | 1.4703 ± 0.0006 | 1.623 ± 0.031
303.15 K, x2 = 0.9687 | – | 152.7 ± 2.4 | – | –
313.15 K, x2 = 0.0723 | 846.13 ± 0.67 | – | 1.4004 ± 0.0007 | 0.428 ± 0.01
313.15 K, x2 = 0.1033 | – | 161.5 ± 2.5 | – | –
313.15 K, x2 = 0.1209 | 855.52 ± 0.65 | – | 1.4034 ± 0.0007 | 0.452 ± 0.01
313.15 K, x2 = 0.1368 | – | 161.3 ± 2.5 | – | –
313.15 K, x2 = 0.2135 | 874.07 ± 0.59 | – | 1.4093 ± 0.0008 | 0.497 ± 0.011
313.15 K, x2 = 0.2714 | – | 160.6 ± 2.5 | – | –
313.15 K, x2 = 0.3285 | 898.41 ± 0.52 | – | 1.4171 ± 0.0008 | 0.566 ± 0.012
313.15 K, x2 = 0.3775 | – | 159.9 ± 2.5 | – | –
313.15 K, x2 = 0.4268 | 920.49 ± 0.46 | – | 1.4237 ± 0.0008 | 0.64 ± 0.014
313.15 K, x2 = 0.4881 | – | 158.9 ± 2.5 | – | –
313.15 K, x2 = 0.502 | 938.3 ± 0.42 | – | 1.4291 ± 0.0006 | 0.706 ± 0.015
313.15 K, x2 = 0.5525 | 950.72 ± 0.38 | – | 1.433 ± 0.0006 | 0.751 ± 0.016
313.15 K, x2 = 0.5877 | – | 158.2 ± 2.5 | – | –
313.15 K, x2 = 0.5881 | 959.69 ± 0.36 | – | 1.4357 ± 0.0006 | 0.786 ± 0.016
313.15 K, x2 = 0.6274 | – | 158 ± 2.4 | – | –
313.15 K, x2 = 0.6613 | 978.86 ± 0.3 | – | 1.4415 ± 0.0006 | 0.872 ± 0.018
313.15 K, x2 = 0.6833 | – | 157.4 ± 2.4 | – | –
313.15 K, x2 = 0.7441 | 1001.63 ± 0.25 | – | 1.4484 ± 0.0006 | 0.997 ± 0.02
313.15 K, x2 = 0.7593 | – | 156.7 ± 2.4 | – | –
313.15 K, x2 = 0.8488 | 1032.24 ± 0.3 | – | 1.4572 ± 0.0006 | 1.162 ± 0.023
313.15 K, x2 = 0.8558 | – | 155.7 ± 2.4 | – | –
313.15 K, x2 = 0.9343 | – | 154.5 ± 2.4 | – | –
313.15 K, x2 = 0.9474 | 1063.08 ± 0.36 | – | 1.4666 ± 0.0005 | 1.374 ± 0.027
313.15 K, x2 = 0.9687 | – | 154.1 ± 2.4 | – | –
